Data reported in patent US8252841B2, “Methods of inhibiting bacterial virulence and compounds relating thereto” (priority 2007, dated 2012).
“And” between values parts separate entries of the source, which are not always exact repeats. Equal values may be shown once. “Also recorded” adds a separate entry of the source.

Key:
[1] = test system: F. tularensis strain SCHU S4; conditions: mouse, in vivo
[2] = test system: F. tularensis SCHU S4 in J774 murine macrophages; assay type: cell-based, Francisella tularensis
[3] = test system: S. typhimurium strain SL1344; set-up: species or system mice (129×1/SvJ); conditions: mouse, in vivo
QseC [4] = target: T1, QseC (Escherichia coli O157:H7, UniProt Q8X524); experiment: QseC autophosphorylation in liposomes; assay type: biochemical, E. coli
T1 construct: His (C); made in house; host or cells: E. coli (arabinose-induced, pVS155), nickel column purification
T1 sequence (Q8X524 whole entry): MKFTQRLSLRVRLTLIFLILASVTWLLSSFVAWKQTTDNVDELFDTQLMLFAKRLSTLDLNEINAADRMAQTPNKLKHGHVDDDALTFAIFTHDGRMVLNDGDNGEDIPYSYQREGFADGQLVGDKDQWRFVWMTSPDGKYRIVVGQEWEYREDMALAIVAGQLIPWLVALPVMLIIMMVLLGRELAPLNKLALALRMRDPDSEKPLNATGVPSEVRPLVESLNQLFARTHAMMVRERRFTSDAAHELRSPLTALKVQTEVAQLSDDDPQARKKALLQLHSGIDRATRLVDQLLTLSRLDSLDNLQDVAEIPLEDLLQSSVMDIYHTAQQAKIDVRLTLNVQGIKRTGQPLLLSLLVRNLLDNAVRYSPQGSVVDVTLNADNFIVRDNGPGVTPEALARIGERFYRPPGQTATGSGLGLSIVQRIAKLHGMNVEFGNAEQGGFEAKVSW

[5] = test system: Salmonella typhimurium strain SL1344; assay type: cell-based
sifA virulence gene = assay type: cell-based, Salmonella typhimurium
[6] = test system: β1, β2 and β3 adrenergic receptors; experiment: Live-cell intracellular cAMP (EPAC-based BRET reporter) in HEK293 cells; set-up: species or system human
EHEC = test system: EHEC; set-up: species or system New Zealand White rabbits; conditions: rabbit, in vivo
EHEC strain 8624 [7] = assay type: cell-based, enterohemorrhagic E. coli (EHEC)
EHEC strain 8624 [8] = experiment: Western blot of EHEC secreted proteins EspA and EspB; assay type: cell-based, enterohemorrhagic E. coli (EHEC); conditions: 50 μM epinephrine plus 5 nM or 5 pM LED209
[9] = Toxicology studies in mice; conditions: 20 mg/kg oral gavage daily for 5 days
F. tularensis strain LVS = assay type: cell-based, Francisella tularensis
QseC [10] = target: T1, QseC; experiment: Binding of tritiated norepinephrine to QseC in liposomes; set-up: species or system E. coli; conditions: 5 μM tritiated NE
EHEC AE lesion formation = experiment: Fluorescein actin staining (FAS) test, AE lesion formation on HeLa cells; assay type: cell-based, enterohemorrhagic E. coli (EHEC)
[11] = test system: F. tularensis virulence genes; assay type: cell-based, Francisella tularensis
[12] = test system: EHEC virulence genes (ler, eae, flhDC, stx2A); assay type: cell-based, enterohemorrhagic E. coli (EHEC)
[13] = Pharmacokinetic analysis in mice
[14] = test system: bacterial cells (strain MCAmp); experiment: Secondary screen with bla::lacZ chromosomal reporter to eliminate toxic compounds and general transcription inhibitors
[15] = CD-1 female mice, 20, 10 and 5 mg/kg IV bolus

Structure (SMILES): O=S(=O)(Nc1ccccc1)c1ccc(NC(=S)Nc2ccccc2)cc1 [LED209, N-phenyl-4-[[(phenylamino)thioxomethyl]amino]benzenesulfonamide]
- deaths of mice treated with LED209 alone ([1]; female, C3H HeN, po, 20 mg/kg): none of the mice treated with LED209 alone died
- survival of infected mice at 175 hours post-infection [1]: 60% and 75%
- overt toxicity ([1]; po, 20 mg/kg): no overt toxicity
- survival of infected mice 9 days post-infection ([1]; po, 20 mg/kg): 80%
- reduction of F. tularensis SCHU-S4 recovered from macrophages [2]: 10 fold
- reduction of S. typhimurium cfus recovered from spleens and livers [3]: ~10 fold
- survival of infected mice 24 hours after infection [3]: 80%
- survival of infected mice up to day 12 [3]: 20%
- QseC autophosphorylation (QseC [4]; in response to 50 μM epinephrine, 5 pM LED209): inhibited
- S. typhimurium growth in vitro [5]: does not hinder growth; also recorded: did not influence
- expression of the sifA virulence gene (sifA virulence gene): diminished
- block of activation by β-adrenergic-specific agonists (cAMP generation) ([6]; 5 μM with dobutamine, terbutaline or BRL37344): nor does it block the activation
- activation of β adrenergic receptors (cAMP generation) ([6]; 5 μM, no agonist): does not activate any of the 3 classes of β adrenergic receptors
- interference with adrenergic signaling ([6]; live cell-based assays): does not interfere with mammalian adrenergic signaling; also recorded: not influence signaling
- EHEC colonization of the intestine (EHEC): modest (and non-statistically significant) reduction
- EHEC colonization, colon (EHEC; 20 mg/kg): only a mild non-statistically significance difference
- EHEC colonization, ileum and cecum (EHEC; 20 mg/kg): no differences between treated and untreated animals
- EHEC growth (EHEC strain 8624 [7]): does not hinder growth; also recorded: does not kill or hinder EHEC growth
- secretion of EspA and EspB (EHEC strain 8624 [8]): inhibited the secretion
- pathology of duodenum, colon, liver, kidney, spleen and heart sections [9]: did not reveal any observable pathology
- mice weights ([9]; vs vehicle): no significant differences
- organ weights ([9]; vs vehicle): no significant differences in the organ weights
- F. tularensis growth (F. tularensis strain LVS): does not hinder growth
- binding of norepinephrine to QseC (QseC [10]; 5 pM LED209): inhibits binding; also recorded: directly antagonized
- binding of norepinephrine to QseC (QseC [10]; 5 fM LED209): does not
- EHEC AE lesion formation on cultured epithelial cells (EHEC AE lesion formation; 5 pM): abolished
- AE lesions (pedestals) (EHEC AE lesion formation; 5 μM and 5 pM): There are no pedestals
- expression of F. tularensis virulence genes, including qseC [11]: decreased
- QseC-dependent virulence gene expression in response to AI-3 [12]: inhibited
- QseC-dependent virulence gene expression in response to epinephrine [12]: inhibited
- expression of the stxAB genes [12]: decreases
- trigger the EHEC SOS response [12]: does not
- AUC versus dose [13, 15]: increases proportionally with dose
- linearity of pharmacokinetics [13, 15]: linear
- bioavailability ([13]; female, CD-1, mouse, plasma, oral, 20 mg/kg): ~70%
- oral bioavailability (in words) ([13]; mice): orally bioavailable
- toxicity against bacterial cells [14]: no toxicity against bacterial cells

Structure (SMILES): CC(=O)Nc1ccc(S(=O)(=O)Nc2ccccc2)cc1
- melting point: 209 to 210 °C

Structure (SMILES): Cc1ccc(N(CC2=NCCN2)c2cccc(O)c2)cc1 [phentolamine, reference compound]
- QseC autophosphorylation (QseC [4]; adrenergic antagonist): block QseC autophosphorylation
- binding of norepinephrine to QseC (QseC [10]; 50 μM adrenergic antagonist): inhibited; also recorded: antagonizes this binding

Structure (SMILES): CC(C)NCC(O)COc1cccc2ccccc12 (centres unmarked) [propranolol, reference compound]
- binding of norepinephrine to QseC (QseC [10]; 50 μM adrenergic antagonist): has no effect on QseC
